Values of other authors, collected in patent US20210002295A1, “SMALL MOLECULE DEGRADERS THAT RECRUIT DCAF15” (Dana-Farber Cancer Institute, Inc., priority 2017, published 2021).

Target: bromodomains of BET proteins
Details: stated for small molecule BET inhibitors

Question: Which Kd does the source give for `Cc1sc2c(c1C)C(c1ccc(Cl)cc1)=N[C@@H](CC(=O)OC(C)(C)C)c1nnc(C)n1-2` [JQ1] here?
Answer: ~0.01 µM
